Laboratory results from patent publication US10167300B2, “Metalloenzyme inhibitor compounds as fungicides” (priority 2014, dated 2019).
Like-named read-outs stand apart in the source and are kept apart here.

Legend:
Assay type in all cases: in vivo, Mycosphaerella graminicola on wheat plants (variety Yuma)
[1] = test system: Mycosphaerella graminicola; Anamorph: Septoria tritici; Bayer Code SEPTTR (standard laboratory isolate, SI SEPTTR); experiment: Type B (low volume, EC formulation, track sprayer 200 L/ha) assay, leaf blotch of wheat, standard laboratory SEPTTR isolate (SI SEPTTR); conditions: Zymoseptoria tritici, 72 h, standard laboratory isolate, low volume EC, 100 g/ha, wheat (Yuma)
Procedure: (§1) Example A: Evaluation of Fungicidal Activity: Leaf Blotch of Wheat (Mycosphaerella graminicola; Anamorph: Septoria tritici; Bayer Code SEPTTR)
(§2) For Type A assays, technical grades of the experimental fungicides in Table 4 below were dissolved in acetone, and then mixed with nine volumes of water containing 110 ppm Triton X-100. The fungicide solutions were applied onto wheat seedlings using an automated booth sprayer. For Type B assays, emulsifiable concentrate (EC) formulations of technical grades of the experimental fungicides in Table 4 below were prepared at 10% (w/v), and then mixed with 150 volumes of 0.1% Trycol 5941. These solutions were applied onto wheat seedlings using an automated track sprayer at 200 L/ha. All sprayed plants were allowed to air dry prior to further handling.
(§3) Wheat plants (variety Yuma) were grown from seed in a greenhouse in 50% mineral soil/50% soil-less Metro mix until the first leaf was fully emerged, with 7-10 seedlings per pot. Prior to or after application of experimental fungicides, plants were inoculated either with spores of a standard laboratory SEPTTR isolate (SI SEPTTR) or with spores from a SEPTTR field isolate collected from Wellsbourne, England in 2012 (FI SEPTTR). After inoculation the plants were kept for 3 days at 20° C. in 100% relative humidity (one day in a dark dew chamber followed by two days in a lighted dew chamber). Plants were then transferred to a 20° C. greenhouse for disease development. When disease symptoms were fully expressed on untreated plants, infection levels on treated plants were assessed on a scale of 0 to 100 percent disease severity. Percent disease control was calculated using the ratio of disease severity on treated plants relative to untreated plants.

[2] = Type B (low volume, EC formulation, track sprayer 200 L/ha) assay, leaf blotch of wheat, SEPTTR field isolate (FI SEPTTR); conditions: Zymoseptoria tritici, 72 h, field isolate, low volume EC, 100 g/ha, wheat (Yuma)
Summary of the method: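 Wheat seedlings (Yuma, first leaf emerged) sprayed with acetone/Triton X-100 solutions (Type A) or 10% EC diluted in 0.1% Trycol at 200 L/ha (Type B), inoculated before or after spraying. Inoculated plants held 3 days at 20 °C, 100% RH, then greenhouse; % disease control from severity versus untreated plants.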

[3] = test system: Mycosphaerella graminicola; Anamorph: Septoria tritici; Bayer Code SEPTTR (standard laboratory isolate, SI SEPTTR); experiment: Type A (high volume) assay, leaf blotch of wheat, standard laboratory SEPTTR isolate (SI SEPTTR); conditions: Zymoseptoria tritici, standard laboratory isolate, high volume, 50 ppm, wheat (Yuma)
Procedure: as §1, §2, §3

[4] = 3 Day Curative, read-out: Disease Control, FI SEPTTR Type B Assay (100 g/ha) 3 DC
[5] = 3 Day Protectant, read-out: Disease Control, FI SEPTTR Type B Assay (100 g/ha) 3 DP
[6] = 24 h, 1 Day Protectant, read-out: Disease Control, SI SEPTTR Type A Assay (50 ppm) 1 DP
[7] = 72 h, 3 Day Curative, read-out: Disease Control, SI SEPTTR Type A Assay (50 ppm) 3 DC

SMILES | pest or weed control at 50 ppm [3, 6] [%] | pest or weed control at 50 ppm [3, 7] [%] | also measured
Cc1ccc(C(O)(c2ccc(-c3ccc(OC(F)(F)F)cc3)cn2)C(C)(C)C)cn1 (stereo not shown) [Compound 148] |  |  | pest or weed control at 100 g/ha ([1]; 3 Day Curative, read-out: Disease Control, SI SEPTTR Type B Assay (100 g/ha) 3 DC): 60 to 79%; pest or weed control at 100 g/ha ([1]; 3 Day Protectant, read-out: Disease Control, SI SEPTTR Type B Assay (100 g/ha) 3 DP): < 40%; pest or weed control at 100 g/ha [2, 4]: 60 to 79%; pest or weed control at 100 g/ha [2, 5]: < 40%
CC(O)(c1cncnc1)c1ccc(-c2ccc(OC(F)(F)F)cc2)cn1 (stereo not shown) [Compound 99] | 80 to 100 |  | pest or weed control at 100 g/ha [2, 4]: < 40%; pest or weed control at 100 g/ha [2, 5]: 40 to 59%
COc1ccc(-c2ccc(C(O)(c3cncnc3)C(C)(C)C)nc2)c(F)c1 (stereo not shown) [Compound 162] | 80 to 100 |  | pest or weed control at 100 g/ha [2, 4]: 80 to 100%; pest or weed control at 100 g/ha [2, 5]: 80 to 100%
CC(C)(C)C(O)(c1cncnc1)c1ccc(-c2ccc(OC(F)(F)C(F)(F)F)cc2)cn1 (stereo not shown) [Compound 161] | 80 to 100 |  | pest or weed control at 100 g/ha [2, 4]: 80 to 100%; pest or weed control at 100 g/ha [2, 5]: 80 to 100%
CC(C)(C)C(O)(c1cncnc1)c1ccc(-c2ccc(C3(C(F)(F)F)CC3)cc2)cn1 (stereo not shown) [Compound 160] | 80 to 100 |  | pest or weed control at 100 g/ha [2, 4]: 80 to 100%; pest or weed control at 100 g/ha [2, 5]: 80 to 100%
OC(c1cncnc1)(c1ccc(-c2ccc(Cl)cc2)cn1)C1CC1 (stereo not shown) [Compound 66] | 80 to 100 |  | 
CC(C)(C)C(O)(Cn1cnnn1)c1ccc(-c2ccc(OC(F)(F)F)cc2)cn1 (stereo not shown) [Compound 26, 3,3-dimethyl-1-(1H-tetrazol-1-yl)-2-[5-[4-(trifluoro-methoxy)phenyl]pyridine-2-yl]butan-2-ol] | < 40 | 40 to 59 | 
OC(CCc1ccc(Cl)cc1F)(Cn1cnnn1)c1ccc(Oc2ccc(C(F)(F)F)cn2)cn1 (stereo not shown) [Compound 12] | 80 to 100 | < 40 | 
COc1ncncc1C(O)(c1ccc(-c2ccc(C#N)cc2)cn1)C(C)(C)C (stereo not shown) [Compound 170] | 80 to 100 |  | 
OC(Cc1ccc(Cl)cc1Cl)(c1cncnc1)c1ccc(-c2ccc(OC(F)(F)F)cc2)cn1 (stereo not shown) [Compound 142] | 80 to 100 |  | 
Cc1cncc(C(O)(c2ccc(-c3ccc(OC(F)(F)F)cc3)cn2)C(C)(C)C)c1 (stereo not shown) [Compound 144] | 80 to 100 |  | 
OC(Cc1ccc(Cl)cc1F)(Cn1cnnn1)c1ccc(Oc2ccc(Cl)cc2)cn1 (stereo not shown) [Compound 42, 1-(4-chloro-2-fluorophenyl)-2-(5-(4-chlorophenoxy)-pyridin-2-yl)-3-(1H-tetrazol-1-yl)propan-2-ol] | 80 to 100 | 80 to 100 | 
CCOc1ccc(-c2ccc(C(O)(c3cncnc3)C(C)(C)C)nc2)cc1 (stereo not shown) [Compound 111] | 60 to 79 |  | 
OC(Cc1cncnc1)(c1ccc(-c2ccc(Cl)cc2)cn1)C1CCCC1 (stereo not shown) [Compound 56] | 80 to 100 | 80 to 100 | 
CC(C)(C)C(O)(c1cncnc1)c1ccc(-c2ccc3c(c2)CCCO3)cn1 (stereo not shown) [Compound 137] | 80 to 100 |  | 
CC(F)(F)c1ccc(-c2ccc(C(O)(c3cncnc3)C(C)(C)C)nc2)cc1 (stereo not shown) [Compound 155] | 80 to 100 |  | pest or weed control at 100 g/ha [2, 4]: 60 to 79%; pest or weed control at 100 g/ha [2, 5]: 60 to 79%
OC(C#CC1CC1)(c1cncnc1)c1ccc(Oc2ccc(Cl)cc2)cn1 (stereo not shown) [Compound 40] | 80 to 100 | 60 to 79 | 
CC(C)C(O)(c1cncnc1)c1ccc(Oc2ccc(C(F)(F)F)cn2)cn1 (stereo not shown) [Compound 58] | 60 to 79 | 80 to 100 | 
C=Cc1ccc(-c2ccc(C(O)(c3cncnc3)C(C)(C)C)nc2)cc1 (stereo not shown) [Compound 109] | 60 to 79 |  | 
OC(Cc1ccc(F)cc1)(c1cncnc1)c1ccc(-c2ccc(OC(F)(F)F)cc2)cn1 (stereo not shown) [Compound 136] | 80 to 100 |  | 
OC(Cc1ccc(Cl)cc1F)(Cn1cnnn1)c1ccc(-c2ccc(OC(F)(F)F)cc2)cn1 (stereo not shown) [Compound 28, 1-(4-chloro-2-fluorophenyl)-3-(1H-tetrazol-1-yl)-2-(5-(4-(trifluoromethoxy)phenyl)pyridin-2-yl)propan-2-ol] | 60 to 79 | 40 to 59 | 

SMILES | pest or weed control at 50 ppm [3, 6] [%] | pest or weed control at 50 ppm [3, 7] [%] | also measured
CC(C)(C)C(O)(c1cncnc1)c1ccc(-c2ccoc2)cn1 (stereo not shown) [Compound 123] | 60 to 79 |  | 
CCC(O)(c1cncnc1)c1ccc(Oc2ccc(C(F)(F)F)cc2)cn1 (stereo not shown) [Compound 34] | 80 to 100 | 60 to 79 | 
CN(C)c1ccc(-c2ccc(C(O)(c3cncnc3)C(C)(C)C)nc2)cc1 (stereo not shown) [Compound 100] | 80 to 100 |  | 
OC(Cc1cncnc1)(c1ccc(-c2ccc(Cl)cc2)cn1)C(F)(F)F (stereo not shown) [Compound 46, 2-(5-(4-chlorophenyl)pyridin-2-yl)-1,1,1-trifluoro-3-(pyrimidin-5-yl)propan-2-ol] | 80 to 100 | 80 to 100 | 
COc1ncncc1C(O)(c1ccc(-c2ccc(C(C)(C)C)cc2)cn1)C(C)(C)C (stereo not shown) [Compound 168] | 60 to 79 |  | 
CC(C)(C)C#CC(O)(c1cncnc1)c1ccc(Oc2ccc(OC(F)(F)F)cc2)cn1 (stereo not shown) [Compound 31] | < 40 | 60 to 79 | 
CC(C)(C)C#CC(O)(c1cncnc1)c1ccc(Oc2ccc(C(F)(F)F)cc2)cn1 (stereo not shown) [Compound 33] | 80 to 100 | 60 to 79 | 
CC(C)(C)C#CC(O)(c1cncnc1)c1ccc(Oc2ccc(Cl)nc2)cn1 (stereo not shown) [Compound 35] | < 40 | 60 to 79 | 
CC(C)(C)C(O)(Cn1cnnn1)c1ccc(Oc2ccc(Cl)cc2)cn1 (stereo not shown) [Compound 43] | 60 to 79 | 80 to 100 | 
OC(CCc1ccc(Cl)cc1)(Cn1cnnn1)c1ccc(Oc2ccc(C(F)(F)F)cn2)cn1 (stereo not shown) [Compound 15] | 60 to 79 | 40 to 59 | 
CC(C)(C)C(O)(c1cncnc1)c1ccc(-c2ccc(C#N)nc2)cn1 (stereo not shown) [Compound 108] | 60 to 79 |  | 
OC(c1cncnc1)(c1ccc(Oc2cccc(Cl)n2)cn1)C1CC1 (stereo not shown) [Compound 72] | < 40 |  | 
C=CCCC(O)(c1cncnc1)c1ccc(Oc2ccc(Cl)cc2)cn1 (stereo not shown) [Compound 21, 1-(5-(4-chlorophenoxy)pyridine-2-yl)-1-(pyrimidin-5-yl)pent-4-en-1-ol] | 80 to 100 | 80 to 100 | 
CCC(O)(c1cncnc1)c1ccc(Oc2ccc(OC(F)(F)F)cc2)cn1 (stereo not shown) [Compound 32] | 80 to 100 | 80 to 100 | 
OC(Cc1cncnc1)(c1ccc(-c2ccc(Cl)cc2)cn1)C1CCCCC1 (stereo not shown) [Compound 52] | 60 to 79 | 60 to 79 | 
CCC(C)(C)C(O)(c1cccnc1)c1ccc(-c2ccc(OC(F)(F)F)cc2)cn1 (stereo not shown) [Compound 154] | 80 to 100 |  | 
OC(C#CC1CC1)(c1cncnc1)c1ccc(Oc2ccc(C(F)(F)F)cc2)cn1 (stereo not shown) [Compound 47] | 40 to 59 | 80 to 100 | 
CC(C)(C)C(O)(Cc1cncnc1)c1ccc(-c2ccc(OC(F)F)cc2)cn1 (stereo not shown) [Compound 68] | 80 to 100 |  | 
COc1ccc(-c2ccc(C(O)(c3cncnc3)C(C)(C)C)nc2)c(OC(F)(F)F)c1 (stereo not shown) [Compound 163] | 80 to 100 |  | pest or weed control at 100 g/ha [2, 4]: 80 to 100%; pest or weed control at 100 g/ha [2, 5]: 80 to 100%
CC(C)(C)C(O)(c1cncnc1)c1ccc(-c2ccc(OC(F)(F)F)cn2)cn1 (stereo not shown) [Compound 150] | 80 to 100 |  | pest or weed control at 100 g/ha [2, 4]: 80 to 100%; pest or weed control at 100 g/ha [2, 5]: 80 to 100%
